One molecule from patent US20220017941A1, “ELECTROANALYTICAL DETERMINATION OF LEUKOCYTE ESTERASE” (Board of Regents, the University of Texas System, priority 2020, published 2022) can be followed below.

The nature of series [1]: Solubility in water. The class given is physicochemical.
In series [2] the test system is leukocyte esterase (LE). Nature of the series: Internally calibrated electrochemical continuous enzyme assay (ICECEA) of LE with ester substrate coupled to alcohol oxidase. As to conditions: pH 7.40 PBS. The class given is biochemical, human. The protocol: The original suspension of human leukocytes was diluted 10 times with a pH 7.40 0.050 M phosphate buffer saline (PBS, 154 mM NaCl) solution that contained 10 vol. % DMSO and left for 10 min to lyse the leukocytes chemically. The suspension was then sonicated for 30 s (Q125 Qsonica, 20% power) to complete the lysing process. The sonication was done in 5 s intervals with 5 s rest cycles to minimize the enzyme deactivation due to solution overheating. The lysate was centrifuged at 10000×g for 5 min, and the supernatant was transferred to a 1.70-mL microcentrifuge tube (Corning, N.Y.) and stored in a freezer at −20° C. when not in use.
Assays. The assays of LE were conducted at a N-CNT electrode by following the protocol of internally calibrated electrochemical continuous enzyme assay (ICECEA) (Zhang et. al., M.; Anal. Chem. 2013, 85, 6026-6032; Bekhit et. al., Anal. Chem. 2019, 91, 3163-3169).
(§1) The assay solution (5.00 mL) was made of pH 7.40 PBS containing both methyl pyruvate (MP) and alcohol oxidase (AOx). The current flowing through a N-CNT electrode at −0.20 V was measured continuously while a stirred assay solution was sequentially spiked with three 50-μL calibrating aliquots of H2O2 and one 50-μL aliquot of LE. This produced an ICECEA amperogram with the three current steps providing a calibration slope CS and an ascending linear current segment having an assay slope AS. The ICECEA amperograms shown were shortened to display only the linear portion of ascending current segment.
The AS and CS slopes were used to calculate the unit U of the enzymatic activity of LE:
By definition, one unit (U) of activity was equal to the amount of LE that consumed 1.0 micromole of MP per 1.0 min in a pH 7.40 PBS solution at room temperature (21° C.).
Kinetic Testing. The hypothesis formulated above was tested first by determining the kinetics of reaction 1. To ensure that the reaction was rate-limiting, the excess of AOx (25 mU) over LE (3 mU) was used. In addition, the concentration of H2O2 was kept within a linear range of calibration plot (0.50-40 μM) to avoid the non-linearity of electrode response to H2O2 from affecting kinetic measurements.
Assay of LE. The analytical merit of the coupling of reactions 1 and 2 via methanol was evaluated by using the MP to assay LE in PBS samples. To conduct the assay under the zero-order kinetics, the high concentration of MP was selected (88 μM, >10Km).
Control Experiments with Small Esters Other Than Methyl Pyruvate. […] The data in FIG. 7 underline the uniqueness of the methyl pyruvate-based method for the quantification of LE as a biomarker of infection.

Series [3] can be described thus: Non-enzymatic hydrolysis in assay solution (steady current steps before LE addition). The class given is physicochemical. To be noted: pH 7.40 PBS assay solution, <200 s. The protocol: as §1
The slope of current segments at >200 s increased with the concentration of MP in a solution.

Where [4] appears, read: 1.4 nM LE, 25 mU AOx, 1-40 μM MP, Michaelis-Menten fit, RSD<10%.

For `COC(=O)C(C)=O` [MP, Methyl pyruvate], the solubility in water entry in series [1] is “good solubility in water”. Besides, in series [2] (setting [4]), the “specificity constant kcatKm^−1” value came out at 2.3e+06 M⁻¹ s⁻¹ and the turnover number kcat is 15 s⁻¹. Also, in series [2] (88 μM ester, 25 mU AO, N-CNT electrode −0.20 V, FIG. 7), the “recognition of ester by LE as substrate (ascending current segment after LE addition at 200 s)” value is listed as “produced the ascending current segment”. Also, the “average specific activity of LE reacting with MP (slope of LE activity vs. LE concentration)” value in series [2] (88 μM MP, 25 mU AOx, linear up to 260 μg L^−1 LE) came out at 12 U mg^−1. The non-enzymatic hydrolysis entry in series [3] is given as “slow on the experimental time scale”.
